Assay results: patent US11639384B2, “Treatment of pediatric BCP-ALL patients with an anti-KIR antibody” (UNIVERSITY CHILDREN'S HOSPITAL TÜBINGEN, priority 2014, dated 2023)
Entries after “also recorded” stand apart in the source; their conditions may differ. Like-named read-outs stand apart in the source and are kept apart here.

Legend:
AML [1] = conditions: cited from earlier work
KIR2DS1 and KIR2DS2 = conditions: cited from earlier work
KIR2DS3 = KIR2DS3 (Homo sapiens, UniProt Q14952); conditions: cited from earlier work
KIR2DL2/3 [2] = conditions: cited from earlier work
KIR2DS4 = KIR2DS4 (Homo sapiens, UniProt P43632); conditions: cited from earlier work
[3] = WO 2006/003179; cited from earlier work
[4] = tested on: HLA-Cw3+ and HLA-Cw4+ targets; conditions: cited from earlier work
KIR receptor = conditions: cited from earlier work
AML [5] = test: Phase 1 overall survival of AML patients; assay type: in vivo, human; conditions: 1 and 3 mg/kg
KIR2DL1 and KIR2DL2/3 [6] = conditions: literature and WO 2006/003179; cited from earlier work
KIR2DL2/3 [7] = test: KIR receptor occupancy on cells from KIR2DL2/3+ patients; assay type: in vivo, human
inhibitory KIR = test: Lirilumab treatment of huNSG mice: inhibitory KIR expression; assay type: in vivo; conditions: 250 μg/mouse, preliminary data
Description: HuNSG mice were treated 14 days before the injection of leukemia cells with a complex of IL15/IL15Ra. One day prior to blasts injection, NK cells were additionally activated by intravenous injection of polyI:C and IPH2102. On the following day blasts were injected, and after 24 h the extent of tumor burden was quantified using 8-11 color flow cytometry.

BCP-ALL sample P23T = test: Lirilumab in NSG mice with adoptively transferred KIR-KIRL-matched NK cells: tumor burden; assay type: in vivo; conditions: P23T blasts, KIR-KIRL-matched activated NK cells, 2250 μg/mouse i.v., 24 h, preliminary data
Description: Naïve NSG mice were injected with blasts, followed by the injection of activated NK cells and subsequent intravenous injection of IPH2102 (2250 μg/mouse). Mice were euthanized after 24 h to quantify tumor burden. […] Data depicted in FIGS. 13B and D represent preliminary data performed in a small number of mice. The data provided in Examples 1-4 support the concept that NK cell immune-therapy, ideally performed with KIR-KIRL-mismatched donors, should have a role in the treatment of pediatric BCP-ALL disease.

NALM-16 cells = test: In vitro cytotoxicity of sorted KIR+ NKAES cells with KIR blockade; assay type: cell-based; conditions: 15 μg/ml, NALM-16, E:T ratio 2:1
Description: Target cells or cell lines were labeled with 0.5 μM CFSE (Vybrant CFDA SE Cell Tracer Kit®, Invitrogen, Germany) 1 day prior to use. NKAES cells were thawed, cultivated overnight and subsequently sorted into KIR^+ and KIR^− subsets following labeling with anti-CD158a (clone HP3E4 recognizing KIR2DL1/S1/S4), anti-CD158b (clone GL183 recognizing KIR2DL2/S2/L3) and anti-CD158e (clone DX9 recognizing 3DL1). KIR^+ and KIR^− NK cells were used as effector cells and cultured overnight in the presence of 100 IU/ml IL2. Co-incubation with NALM-16 cells was performed in triplicates at ratios between 10:1 and 2:1 for 5 h. Following staining with ARD-Ax350, cells were washed and analyzed. To correct for spontaneously occurring cell death, target cell monoculture controls were included in every experiment. The percentage of specific cytotoxicity was calculated as follows: (% CFSE^+ARD^+ dead targets−% CFSE^+ARD^+ spontaneously dead targets)/(100−% CFSE^+ ARD^+ spontaneously dead targets)×100%.
In vitro cytotoxicity was assayed as described in Example 1. […] Following staining with ARD-Ax350, cells were washed and analyzed.

KIR2DL1 and KIR2DL2/3 [8] = test: KIR binding specificity of anti-KIR mAbs: inhibitory KIR2DL; parameters: species or system human
CD45+ cells = test: In vivo treatment with 5-aza-cytidine: BM cytotoxicity; conditions: low-dose, long-term treatment; huNSG and non-humanized control mice
BM-derived NK cells = test: In vivo treatment with 5-aza-cytidine: NK cell phenotype and subsets in BM; parameters: species or system huNSG mice
pediatric BCP-ALL = test: In vivo treatment with 5-aza-cytidine: leukemic burden in BM; conditions: non-humanized control NSG mice, low-dose regimen
[9] = Troetel et al., 1972; cited from earlier work

Sequence of KIR2DS4 (P43632 22-304): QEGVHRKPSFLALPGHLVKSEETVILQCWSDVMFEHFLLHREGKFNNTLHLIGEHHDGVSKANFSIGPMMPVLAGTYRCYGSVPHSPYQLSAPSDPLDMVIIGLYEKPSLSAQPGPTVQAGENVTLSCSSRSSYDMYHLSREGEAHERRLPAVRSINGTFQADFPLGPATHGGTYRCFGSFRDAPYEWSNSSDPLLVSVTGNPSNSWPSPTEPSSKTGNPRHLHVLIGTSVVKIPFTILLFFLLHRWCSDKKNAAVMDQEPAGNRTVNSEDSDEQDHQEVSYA
Sequence of KIR2DS3 (Q14952 22-304): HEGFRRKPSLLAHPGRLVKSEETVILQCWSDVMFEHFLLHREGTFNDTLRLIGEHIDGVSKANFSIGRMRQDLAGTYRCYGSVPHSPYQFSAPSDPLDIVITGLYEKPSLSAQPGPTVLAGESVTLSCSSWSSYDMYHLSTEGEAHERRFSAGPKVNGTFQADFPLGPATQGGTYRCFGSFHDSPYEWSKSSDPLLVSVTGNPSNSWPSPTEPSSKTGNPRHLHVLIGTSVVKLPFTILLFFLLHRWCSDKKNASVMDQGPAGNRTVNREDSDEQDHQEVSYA

**Q.** For “1-7F9: KIR2DL-cross-reactive fully human IgG4 kappa mAb; H chain SEQ ID NO:3, L chain SEQ ID NO:5”, which “overall survival (OS)” value (AML [1]; 6 AML patients, dosages of 1 and 3 mg/kg) is on record?
**A.** 29.7 months

**Q.** What about the “overall survival (OS)” value (AML [1]; 16 AML patients, <0.3 mg/kg) of the same compound?
**A.** 11.8 months

**Q.** What about the “binding to KIR2DS1 and KIR2DS2” value (KIR2DS1 and KIR2DS2) of the same compound?
**A.** bind to KIR2DS1 and KIR2DS2

**Q.** What about the “binding to KIR2DS3” value (KIR2DS3) of the same compound?
**A.** does not bind to the stimulatory KIR, KIR2DS3

**Q.** And the “blocking of binding of group 1 HLA-C (HLA-Cw3) to KIR2DL2/3” value (KIR2DL2/3 [2])?
**A.** blocks

**Q.** And the “binding to KIR2DS4” value (KIR2DS4)?
**A.** does not bind to the stimulatory KIR, KIR2DS4; also recorded: none of 1-7F9, lirilumab and 1-4F1 binds to KIR2DS4

**Q.** And the IgG4 half-molecule formation [3]?
**A.** did not reveal half-molecule formation

**Q.** And the “reconstitution of cell lysis by NK cells against Cw4-positive targets” value ([4]; WO 2005/003168, Example 4)?
**A.** almost completely reconstitutes lysis

**Q.** What about the “potentiation of NK cell cytolytic activity on HLA-Cw3+ and HLA-Cw4+ targets” value ([4]; WO 2005/003168) of the same compound?
**A.** strongly potentiate NK cell cytolytic activity

**Q.** And the “duration of full (>90%) KIR receptor occupancy” value (KIR receptor; 0.075 mg/kg)?
**A.** 1 week

**Q.** And the “duration of full (>90%) KIR receptor occupancy” value (KIR receptor; 1 mg/kg)?
**A.** 2 weeks

**Q.** What about the “duration of KIR saturation (>30% KIR occupancy)” value (KIR receptor; 3 mg/kg) of the same compound?
**A.** 24-32 weeks

**Q.** And the “duration of full (>90%) KIR receptor occupancy” value (KIR receptor; 3 mg/kg)?
**A.** at least 4 weeks

**Q.** And the “improvement of OS versus <0.3 mg/kg group” value (AML [5])?
**A.** ~18 months

**Q.** And the “KIRs bound / recognized” value (KIR2DL1 and KIR2DL2/3 [6])?
**A.** binds specifically to both KIR2DL1 and KIR2DL2/3

**Q.** What about the receptor occupancy (KIR2DL2/3 [7]; 0.2 mg/kg and 2 mg/kg, 28-day period) of the same compound?
**A.** good receptor occupancy throughout the 28-day period

**Q.** For “lirilumab: 1-7F9(S241P) variant, human IgG4 anti-KIR2DL1/2/3 mAb; H chain SEQ ID NO:4, L chain SEQ ID NO:5”, which “levels of inhibitory KIR expression” value (inhibitory KIR) is on record?
**A.** very low levels; also recorded: barely detectable levels

**Q.** What about the “levels of inhibitory KIR expression” value (inhibitory KIR; listed as lirilumab (IPH2102)) of the same compound?
**A.** negligible

**Q.** What about the “binding to KIR2DS1 and KIR2DS2” value (KIR2DS1 and KIR2DS2) of the same compound?
**A.** bind to KIR2DS1 and KIR2DS2

**Q.** And the tumor burden (BCP-ALL sample P23T)?
**A.** significant reduction of tumor burden

**Q.** And the “binding to KIR2DS4” value (KIR2DS4)?
**A.** none of 1-7F9, lirilumab and 1-4F1 binds to KIR2DS4

**Q.** And the “effect on cytotoxicity of KIR+ NK cells of KIR-KIRL-matched donors” value (NALM-16 cells)?
**A.** distinctly enhanced

**Q.** And the “effect on cytotoxicity of KIR+ NK cells of KIR-KIRL-mismatched donors” value (NALM-16 cells)?
**A.** did not respond to inhibitory KIR blockade

**Q.** What about the “effect of S241P mutation on affinity for KIR2DL1 and KIR2DL2/3” value (KIR2DL1 and KIR2DL2/3 [8]) of the same compound?
**A.** equalizes the affinity for KIR2DL1 and KIR2DL2/3

**Q.** What about the “specificity and affinity of binding to KIR targets” value (KIR2DL1 and KIR2DL2/3 [8]; inferred from identical CDRs and variable regions) of the same compound?
**A.** the same as that exhibited by 1-7F9

**Q.** What about the KIR receptor occupancy (KIR2DL2/3 [7]; 1 mg/kg, over a 28-day period) of the same compound?
**A.** ~100%

**Q.** Which “BM cytotoxicity: human and murine CD45+ cells” value (CD45+ cells) does the source give for `Nc1ncn([C@@H]2O[C@H](CO)[C@@H](O)[C@H]2O)c(=O)n1` [5-aza-cytidine] here?
**A.** statistically insignificant reduction; also recorded: does not exert statistically relevant BM cytotoxicity

**Q.** What about the “expression of inhibitory (KIRs, NKG2A) and activating (NKp44, NKG2D) NK cell receptors” value (BM-derived NK cells; BM-derived NK cells of huNSG mice, low doses) of the same compound?
**A.** did not significantly modulate the expression; also recorded: does not significantly alter the expression

**Q.** What about the “numbers of immature NK cell precursors and mature NK cell subsets in BM” value (BM-derived NK cells; huNSG mice, low-dose long-term treatment) of the same compound?
**A.** distinctly higher numbers of both immature and mature NK cell subsets; also recorded: clearly higher numbers; also recorded: induces the expression of BM-residing NK cell precursors

**Q.** And the “direct cytotoxic effect on pediatric BCP-ALL” value (pediatric BCP-ALL)?
**A.** largely excluded; also recorded: does not exert relevant direct cytotoxic effects

**Q.** What about the half-life [9] of the same compound?
**A.** less than 4 h
